Article PMC9772450, “Gel-forming antagonist provides a lasting effect on CGRP-induced vasodilation” (Frontiers in Pharmacology, 2022)
pIC50: −log10 of the molar value. Where two headings read alike, the source gives them in different places. One block for each compound: values may come before it. Non-standard residues stand in square brackets, D forms with d. Residues, ends and D or L forms follow the SMILES beside them. *: point of attachment. 2Nal = N[C@@H](Cc1ccc2ccccc2c1)C(=O)O; Met(O2) = CS(=O)(=O)CC[C@H](N)C(=O)O; Arg(Me) = CNC(=N)NCCC[C@H](N)C(=O)O; Palmitoyl = CCCCCCCCCCCCCCCC(=O)*

Columns and labels:
[1] = Visual (tube-tapping) assay of gel-forming capability and solubility; format: physicochemical; design: key to Gel-forming ability: Y: can form a liquid gel; N: lacks the ability to efficiently form a liquid gel; conditions: for Gel-forming ability: visual inspection of 11% peptide solutions, tube-tapping, 20 min after mixing
Protocol: To evaluate the ability of peptides to form gels in situ, we initially determined this tendency qualitatively based on visual examinations of peptide solutions using a tube-tapping method. In addition, we quantitatively determined the viscosity of select peptide solutions using a viscometer (Rheosense Inc; http://www.rheosense.com/products/viscometers) ([Yan and Pochan, 2010]). In the visual assay, aliquots of peptides were dissolved in an aqueous solution (i.e., de-ionized water, saline, or 5% glucose solution). The peptide that dissolved instantly and stayed as a clear solution without obvious macroscopic change in viscosity at 20 min after mixing was considered soluble. If macroscopic particles of peptides remained in the solution at 20 min after mixing, the peptide was considered insoluble.

CLR/RAMP1 receptor = molecular target: T1, CLR/RAMP1 receptor (Homo sapiens, UniProt O60894+Q16602); assay: HitHunter cAMP XS+ CALCRL-RAMP1 cAMP assay, antagonist mode; format: cell-based; conditions: for pIC50: CHO-K1 CALCRL-RAMP1 cAMP Hunter cells, human β-CGRP at EC80 (0.37nM), 30 min pre-incubation, 10-point curve from 10 μM, 3-fold dilutions, duplicate samples, assayed side-by-side once, read-out: IC50 for antagonizing CGRP-induced CLR/RAMP1 signaling; for Maximum response: antagonist mode, β-CGRP at EC80, 10-point curve, duplicate; for Antagonistic activity toward CGRP-mediated CLR/RAMP1 signaling compared to ADE651: result in words
T1 construct: host or cells: CHO-K1 (cAMP Hunter cell line)
T1 sequence (Q16602 23-461): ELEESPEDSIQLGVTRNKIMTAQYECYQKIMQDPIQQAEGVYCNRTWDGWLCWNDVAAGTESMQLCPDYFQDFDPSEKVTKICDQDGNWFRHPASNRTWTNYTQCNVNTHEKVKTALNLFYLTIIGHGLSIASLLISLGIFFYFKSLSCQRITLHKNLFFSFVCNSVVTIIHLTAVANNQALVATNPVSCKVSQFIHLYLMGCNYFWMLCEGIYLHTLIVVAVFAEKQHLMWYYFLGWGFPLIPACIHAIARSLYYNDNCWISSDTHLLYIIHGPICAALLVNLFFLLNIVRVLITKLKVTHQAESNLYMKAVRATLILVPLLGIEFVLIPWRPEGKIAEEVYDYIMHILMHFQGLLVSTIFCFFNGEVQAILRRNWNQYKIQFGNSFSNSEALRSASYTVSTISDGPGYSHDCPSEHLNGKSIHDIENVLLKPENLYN
T1 sequence (O60894 27-148): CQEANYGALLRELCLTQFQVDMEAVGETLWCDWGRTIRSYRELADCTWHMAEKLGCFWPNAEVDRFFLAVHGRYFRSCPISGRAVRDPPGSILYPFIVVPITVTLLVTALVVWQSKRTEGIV
Protocol: The assay of the antagonistic activity of analogs was conducted by the Eurofins Discoverx using the HitHunter cAMP XS + assay as described earlier ([Bradley and McLoughlin, 2009]; [Chang and Hsu, 2019]). The dose-dependent inhibitory effect of antagonists was studied in duplicate, at 10 different concentrations. Determination of the half-maximal inhibitory concentration (IC50) was performed using a 10-point dose-response curve. The starting concentration was 10 μM, and it was serially diluted 3-fold, in DMSO. […] Using the Hit Hunter® assay (CALCRL-RAMP1 cAMP assay in the antagonist mode; https://www.discoverx.com/products/cell-line/cho-k1-calcrl-ramp1-gs-cell-line-95-0164c2), the eight compounds in Table 1 were assayed side-by-side once, and the IC50 was derived based on the standard assay of duplicate samples of a ten-point curve. In this homogenous, non-imaging assay, the activation of CLR/RAMP1 signaling was evaluated using the Enzyme Fragment Complementation (EFC) technology with β-galactosidase (β-Gal) as the functional reporter. The enzyme was split into two complementary portions: an enzyme acceptor and an enzyme donor. The enzyme donor is fused to cAMP and it competes with cAMP generated by cells
For binding to a cAMP-specific antibody. Active β-Gal is formed by complementation of exogenous enzyme acceptor to any unbound enzyme donor-cAMP. The active enzyme then converted a chemiluminescent substrate to generate a signal. Briefly, cAMP Hunter cell lines with the select receptor were expanded from freezer stocks ([Bradley and McLoughlin, 2009]), and cells were seeded in a total volume of 20 μL into 384-well microplates and incubated at 37°C for the appropriate time. […] Intermediate dilution of samples was performed to generate 4X sample in the assay buffer. Before the assay, media was aspirated from cells and replaced with 10 μL 1:1 HBSS/Hepes:cAMP XS + Ab reagent, and 5 μL of 4X compound was added to the cells and incubated for 30 min. […] Vehicle concentration was 1%.
The chemiluminescent signal was read with a PerkinElmer chemiluminescent plate reader. The compound activity was analyzed using a CBIS data analysis suite (ChemInnovation, CA). The percentage inhibition was calculated using the following formula: % Inhibition = 100% x (1 - (mean RLU of test sample - mean RLU of vehicle control)/(mean RLU of EC80 control - mean RLU of vehicle control)). Data were normalized to the maximal and minimal response observed in the presence of EC80 agonist and vehicle.

[2] = Passage of peptide molecules through Centricon filters; format: physicochemical; conditions: Centricon 30,000 MW cutoff, 15 min centrifugation; specific EIA; N = 3 per group; result in words
Excerpt: To evaluate whether gel-formation reduces the movement of peptide molecules in solution, we used the Centricon® filters (Millipore) to separate samples and the carriers based on their molecular mass. The sample is monomeric peptides, and the carrier is the self-assembled gel. One milligram aliquots of the peptides were first dissolved as 0.1% solution in 5% glucose, 0.1% solution in saline, 5% solution in 5% glucose, 10% solution in 5% glucose, and 20% solution in 5% glucose. Ten minutes later, the 5%, 10%, and 20% solutions were diluted to the 0.1% level. Aliquots of these solutions were sampled and dispensed into separate Centricon columns (30,000 MW cutoff), and the monomeric peptide and gel molecules were separated by centrifugation for 15 min (2000 x g). The level of peptide in the elutes was determined by specific EIAs (Phoenix Pharmaceuticals Inc.).

[3] = system: CGRP-induced vasodilation; assay: Dermal blood flow and vasodilation in rat hindlimbs, laser Doppler imaging; format: in vivo, Sprague-Dawley rats; conditions: rat hindlimb; saline at 0 h; CGRP 1 mg/100 µL s.c. at 4 h; N = 3
Protocol: Adult Sprague Dawley male rats (body weight 150–200 g) were randomly divided into treatment groups. Animals were individually housed during the experiment. After acclimation, rats were anesthetized and stabilized under 2.5% isoflurane, and were placed on a heating pad. Testing articles were prepared just before the experiment and individually administered subcutaneously into the hindlimbs. Human β-CGRP (LifeTein LLC, Hillsborough, NJ) was dissolved in a saline solution, and the antagonist solution was prepared in a 5% glucose solution. […] In this experiment, the antagonist gel solution was administered at 0 h as a liquid solution shortly after dissolution to prevent issues associated with the formation of semi-solid gel when the peptide is dissolved at high levels. […] The amount of blood flow was determined by laser Doppler imaging as described earlier ([Van der Schueren et al., 2007]; [Benschop et al., 2014]). The laser Doppler scan series of the hindlimbs began with two baseline scans and was followed by two scans each at select time points. Data are reported as percent change from the average baseline scans.

migraine = conditions: cited from earlier work
Excerpt: Migraine is a common complex neurovascular disorder that is manifested as episodic and predominantly unilateral throbbing headache with hypersensitivity to light, sound, and movement ([Erdener and Dalkara, 2014]; [Schuster and Rapoport, 2016]). According to the World Health Organization, 324 million people worldwide suffer from incapacitating migraine in 2008. In ∼ one-third of patients, migraine headaches are accompanied by an aura involving neurological symptoms such as transient visual, sensory, or motor disturbances ([Goadsby et al., 2002]). In the US, it was reported that 15% of Americans ...

[4] = cited from earlier work

- Gel-forming ability [1]: Y
- pIC50 (CLR/RAMP1 receptor): 7.82
- Maximum response (CLR/RAMP1 receptor): 100.1 % of positive control
Compound: CCCCCCCCCCCCCCCC(=O)N[C@@H](CCCCN)C(=O)N[C@H](C(=O)N[C@@H](CCC(N)=O)C(=O)N[C@@H](CCCCN)C(=O)N[C@@H](Cc1ccc2ccccc2c1)C(=O)N[C@@H](CO)C(=O)N[C@@H](C)C(=O)N1CCC[C@H]1C(=O)N[C@H](C(=O)N[C@@H](CC(=O)O)C(=O)N1CCC[C@H]1C(=O)N[C@@H](CO)C(=O)N[C@@H](CO)C(=O)N1CCC[C@H]1C(=O)N[C@@H](Cc1c[nH]cn1)C(=O)N[C@@H](CO)C(=O)N[C@@H](Cc1ccc(O)cc1)C(N)=O)C(C)C)C(C)C [ADE651H] (Palmitoyl-KVQK[2Nal]SAPVDPSSPHSY-NH2)
- Antagonistic activity toward CGRP-mediated CLR/RAMP1 signaling compared to ADE651 (CLR/RAMP1 receptor): significantly reduced antagonistic activity

- Gel-forming ability [1]: Y
- pIC50 (CLR/RAMP1 receptor): 9.05
- Maximum response (CLR/RAMP1 receptor): 100.4 % of positive control
Compound: CCCCCCCCCCCCCCCC(=O)N[C@@H](CCCCN)C(=O)N[C@H](C(=O)N[C@@H](CCC(N)=O)C(=O)N[C@@H](CCCCN)C(=O)N[C@@H](CCS(C)(=O)=O)C(=O)N[C@@H](CO)C(=O)N[C@@H](C)C(=O)N1CCC[C@H]1C(=O)N[C@H](C(=O)N[C@@H](CC(=O)O)C(=O)N1CCC[C@H]1C(=O)N[C@@H](CO)C(=O)N[C@@H](CO)C(=O)N1CCC[C@H]1C(=O)N[C@@H](Cc1c[nH]cn1)C(=O)N[C@@H](CO)C(=O)N[C@@H](Cc1ccc(O)cc1)C(N)=O)C(C)C)C(C)C [ADE651J] (Palmitoyl-KVQK[Met(O2)]SAPVDPSSPHSY-NH2)
- Antagonistic activity toward CGRP-mediated CLR/RAMP1 signaling compared to ADE651 (CLR/RAMP1 receptor): retained the potent antagonistic activity

- Gel-forming ability [1]: Y
Compound: CCCCCCCCCCCCCCCC(=O)N[C@@H](CCCCN)C(=O)N[C@H](C(=O)N[C@@H](CCC(N)=O)C(=O)N[C@@H](CCCNC(=N)NC)C(=O)N[C@@H](CC(C)C)C(=O)N[C@@H](CO)C(=O)N[C@@H](C)C(=O)N1CCC[C@H]1C(=O)N[C@H](C(=O)N[C@@H](CC(=O)O)C(=O)N1CCC[C@H]1C(=O)N[C@@H](CO)C(=O)N[C@@H](CO)C(=O)N1CCC[C@H]1C(=O)N[C@@H](Cc1c[nH]cn1)C(=O)N[C@@H](CO)C(=O)N[C@@H](Cc1ccc(O)cc1)C(N)=O)C(C)C)C(C)C [ADE651M] (Palmitoyl-KVQ[Arg(Me)]LSAPVDPSSPHSY-NH2)
- Antagonistic activity toward CGRP-mediated CLR/RAMP1 signaling compared to ADE651 (CLR/RAMP1 receptor): retained the potent antagonistic activity

- Solubility in 5% glucose solution ([1]; visual): soluble from 0.1% to 20%
- EC80 of agonist in the cAMP assay (CLR/RAMP1 receptor; agonist, cAMP Hunter CLR/RAMP1 cells): 0.37 nM
- Peptide level in elutes from 0.1, 5, 10 and 20% solution groups [2]: similar
Compound: CSCC[C@H](NC(=O)CNC(=O)CNC(=O)[C@H](CO)NC(=O)[C@H](CCCNC(=N)N)NC(=O)[C@H](CO)NC(=O)[C@H](CC(C)C)NC(=O)[C@H](CC(C)C)NC(=O)CNC(=O)[C@H](C)NC(=O)[C@H](CC(C)C)NC(=O)[C@H](CCCNC(=N)N)NC(=O)[C@H](Cc1c[nH]cn1)NC(=O)[C@@H](NC(=O)[C@@H](NC(=O)[C@@H]1CSSC[C@H](NC(=O)[C@H](C)N)C(=O)N[C@@H](CC(N)=O)C(=O)N[C@@H]([C@@H](C)O)C(=O)N[C@@H](C)C(=O)N[C@@H]([C@@H](C)O)C(=O)N1)C(C)C)[C@@H](C)O)C(=O)N[C@H](C(=O)N[C@@H](CCCCN)C(=O)N[C@@H](CO)C(=O)N[C@@H](CC(N)=O)C(=O)N[C@@H](Cc1ccccc1)C(=O)N[C@H](C(=O)N1CCC[C@H]1C(=O)N[C@H](C(=O)N[C@@H](CC(N)=O)C(=O)N[C@H](C(=O)NCC(=O)N[C@@H](CO)C(=O)N[C@@H](CCCCN)C(=O)N[C@@H](C)C(=O)N[C@@H](Cc1ccccc1)C(N)=O)C(C)C)[C@@H](C)O)C(C)C)C(C)C [CGRP, calcitonin gene-related peptide]
- Increase in blood flow at the 5 h time point in control animals [3]: > 25%

Compound: CC1(C)O[C@@H]2[C@@H](CO[C@@]3(COS(N)(=O)=O)OC(C)(C)O[C@@H]23)O1 [topiramate]
- Reduction of migraine days (migraine; ref Overeem et al., 2021): 1.11 migraine days

Compound: C[C@@H]1[C@H](c2ccccc2)C[C@H](NC(=O)c2cnc3c(c2)C[C@@]2(C3)C(=O)Nc3ncccc32)C(=O)N1CC(F)(F)F [ubrogepant]
- Pain freedom at 2 h, share of acute migraine patients (migraine; 14.3% in the placebo group, ref Lipton et al., 2019, Switzer et al., 2022): 21.8%
- Absolute difference in the pain-free rate versus placebo (migraine; ref Lipton et al., 2019, Switzer et al., 2022): 6.4–7.5%

- Gel-forming ability [1]: Y
- Maximum response (CLR/RAMP1 receptor): 99.9 % of positive control
Compound: Pal-KVQ-Lys (Pyr)-LSAPVDPSSPHSY-NH2 [ADE651N, ADE651 variant, second lysine substituted with Lys (Pyr)]
- Antagonistic activity toward CGRP-mediated CLR/RAMP1 signaling compared to ADE651 (CLR/RAMP1 receptor): retained the potent antagonistic activity

- Solubility in 5% glucose solution ([1]; visual): soluble from 0.1% to 20%
- Liquid gel formation at 6–20% level ([1]; visual, result in words): does not form a liquid gel
- Peptide level in elutes from 0.1, 5, 10 and 20% solution groups [2]: similar
Compound: VGCRFGTCTVQKLAHLWQLMGPAGRQDSAPVDPSSPHSY-NH2 [ADE410]

Compound: abaloparatide: approved peptide therapeutic
- Volume of distribution ([4]; in vivo): 50.0 L

Compound: exenatide: approved peptide therapeutic
- Volume of distribution ([4]; in vivo): 28.3 L

Compound: histrelin
- Volume of distribution ([4]; in vivo): 58.4 L

Compound: setmelanotide
- Volume of distribution ([4]; approved peptide therapeutics): 48.7 L
